# Values of other authors as cited in patent US20060177438A1, “Methods of altering absorption of hydrophobic compounds” (New England Medical Center, priority 2005, published 2006).
# Conditions: cited from earlier work
smiles,measurement,value
CC(C)CCC[C@@H](C)[C@H]1CC[C@H]2[C@@H]3CC=C4C[C@@H](O)CC[C@]4(C)[C@H]3CC[C@]12C [cholesterol],dietary cholesterol absorbed by the human intestine,34-57%
